# Measured values reported in US20060135773A1, “Trisubstituted nitrogen modulators of tyrosine phosphatases” (priority 2004, published 2006).
# Structures can show the parent of a compound that is named as a salt.
# Target: T1, PTP-1B (Homo sapiens, UniProt P18031)
# T1 construct: PTP-1B (purified, 1 mg/mL) as a 1:250 dilution
# T1 sequence (P18031 1-321 limits assumed): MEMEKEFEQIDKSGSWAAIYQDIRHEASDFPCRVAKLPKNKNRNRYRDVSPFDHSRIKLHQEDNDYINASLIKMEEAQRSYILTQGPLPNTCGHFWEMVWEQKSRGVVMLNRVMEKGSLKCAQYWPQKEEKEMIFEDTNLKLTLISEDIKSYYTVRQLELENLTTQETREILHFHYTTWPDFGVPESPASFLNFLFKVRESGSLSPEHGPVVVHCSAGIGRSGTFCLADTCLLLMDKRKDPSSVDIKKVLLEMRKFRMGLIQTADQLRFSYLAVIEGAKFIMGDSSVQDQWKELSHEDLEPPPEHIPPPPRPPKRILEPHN
# Experiment: pNPP tyrosine phosphatase inhibition assay, PTP-1B
# Format: biochemical
# Details: pNPP assay, PTP-1B; read-out: Activity Class (IC50 ranges)
# Procedure: The compounds provided herein are evaluated for biological activity as inhibitors of PTP-1B using, for example, a pNPP assay can be used to screen compounds for tyrosine phosphatase inhibitory activity as described in the Examples.
# A 5× stock of pNPP (p-nitrophenol phosphate) substrate is prepared as 50 mM pNPP in assay buffer. Various tyrosine phosphatase solutions can be prepared as follows: • PTP-1B (purified, 1 mg/mL) as a 1:250 dilution (to a final concentration of 4:g/mL); • TC-PTP (NEB, 1000 units in 100:L) as a 1:50 dilution (to a final concentration of 2U/10:L (4:g/mL)); • CD45 (Calbiochem, 20:g, 400 units in 100:L) as a 1:50 dilution (to a final concentration of 0.8U/10:L (4:g/mL)); • LAR (NEB, 1000 units in 200:L) as a 1:75 dilution (to a final concentration of 0.7U/10:L (4:g/mL)); and • PTP-β (UBI, #14-350, 10,000 units, 40:g/571:L) as a 1:17.5 dilution (to a final concentration of 10U/10:L (4:g/mL));
# The compound to be tested is prepared as 1:16.7 and 1:50 dilutions from stock in a total volume of […] DMSO to give final concentrations of 626 and 200:M. The reaction mixtures are prepared in a 96-well microtiter plate (on ice) as 55:L assay buffer, 5:L of the diluted compound (to a final concentration of 31.3 and 10:M), 20:L of the pNPP substrate solution (to a final concentration of 10 mM) and 20:L PTPase in assay buffer. The reactants are mixed well, the plate placed in a water bath at 30° C. and incubated for 10 minutes. The reaction is then terminated by adding 100:L of 2M K2CO3 per well, and the absorbance is measured at 405 nm by conventional means.
# Unless otherwise indicated, this assay was used to determine activity for the selected compounds whose activity is provided in Table 1.
row,Molecule,IC50
1,"N#Cc1ccccc1S(=O)(=O)N(Cc1ccc(Cl)c(Cl)c1)Cc1ccc(C(F)(F)P(=O)(O)O)c(Br)c1 [Compound 97, [(2-Bromo-4-{[(3,4-dichloro-benzyl)-(2-cyanobenzenesulfonyl)-amino]-methyl}-phenyl)-difluoro-methyl]-phosphonic acid]",250 to 499 nM
2,"CCNc1ccc(S(=O)(=O)C(F)(F)F)cc1NC(=O)c1ccc(C)c(S(=O)(=O)N2CCCCC2)c1 [Compound 106, N-(2-Ethylamino-5-trifluoromethanesulfonyl-phenyl)-4-methyl-3-(piperidine-1-sulfonyl)-benzamide]",> 25000 nM
3,"O=P(O)(O)C(F)(F)c1ccc(CN(Cc2ccc(C(F)(F)P(=O)(O)O)c(Br)c2)S(=O)(=O)c2ccc3ccccc3c2)cc1Br [Compound 99, [(2-Bromo-4-{[[3-bromo-4-(difluoro-phosphono-methyl)-benzyl]-(naphthalene-2-sulfonyl)-amino]-methyl}-phenyl)-difluoro-methyl]-phosphonic acid]",< 99 nM
4,"Cc1cc(C=C(C#N)C(=O)Nc2ccc3ccccc3c2)c(C)n1-c1ccc(C(=O)O)cc1 [Compound 58, 4-{3-[2-Cyano-2-(naphthalen-2-ylcarbamoyl)-vinyl]-2,5-dimethyl-pyrrol-1-yl}-benzoic acid]",> 25000 nM
5,{[4-(difluorophosphonomethyl)-3-chlorophenyl]methyl}(cycloheptylmethyl)[(2-methoxyphenyl)sulfonyl]amine [Compound 202],100 to 249 nM
6,"O=P(O)(O)C(F)(F)c1ccc(CN(Cc2ccc(C(F)(F)P(=O)(O)O)cc2)S(=O)(=O)c2cccc(-c3ccccc3)c2)cc1 [Compound 74, {[4-({(Biphenyl-3-sulfonyl)-[4-(difluoro-phosphono-methyl)-benzyl]-amino}-methyl)-phenyl]-difluoro-methyl}-phosphonic acid]",250 to 499 nM
7,"N#Cc1ccc(CN(Cc2ccc(C(F)(F)P(=O)(O)O)c(Br)c2)S(=O)(=O)c2ccccc2Cl)cc1 [Compound 103, [(2-Bromo-4-{[(4-cyano-benzyl)-(2-chlorobenzenesulfonyl)-amino]-methyl}-phenyl)-difluoro-methyl]-phosphonic acid]",100 to 249 nM
8,"O=P(O)(O)C(F)(F)c1ccc(CN(Cc2ccc(C(F)(F)P(=O)(O)O)cc2)S(=O)(=O)c2ccccc2-c2ccccc2)cc1 [Compound 93, {[4-({(Biphenyl-2-sulfonyl)-[4-(difluoro-phosphono-methyl)-benzyl]-amino}-methyl)-phenyl]-difluoro-methyl}-phosphonic acid]",250 to 499 nM
9,"O=P(O)(O)C(F)(F)c1ccc(CN(Cc2ccc(Cl)c(Cl)c2)S(=O)(=O)c2ccccc2)cc1Br [Compound 68, [(4-{[Benzenesulfonyl-(3,4-dichloro-benzyl)-amino]-methyl}-2-bromo-phenyl)-difluoro-methyl]-phosphonic acid]",250 to 499 nM
10,"O=C(NS(=O)(=O)C(F)(F)F)c1ccc(CN(Cc2ccc(Cl)c(Cl)c2)S(=O)(=O)c2ccccc2Cl)cc1Br [Compound 95, N-(3-Bromo-4-trifluoromethanesulfonylaminocarbonyl-benzyl)-2-chloro-N-(3,4-dichloro-benzyl)-benzenesulfonamide]",> 25000 nM
11,"COC(=O)c1ccc(CN(Cc2ccc(C(F)(F)P(=O)(O)O)c(Br)c2)S(=O)(=O)c2ccccc2Cl)cc1 [Compound 104, 4-{[[3-Bromo-4-(difluoro-phosphono-methyl)-benzyl]-(2-chloro-benzenesulfonyl)-amino]-methyl}-benzoic acid methyl ester]",100 to 249 nM
12,"O=C(O)CCc1ccc(S(=O)(=O)N(Cc2ccc(Cl)c(Cl)c2)Cc2ccc(C(F)(F)P(=O)(O)O)c(Br)c2)cc1 [Compound 122, 3-{4-[[3-Bromo-4-(difluoro-phosphono-methyl)-benzyl]-(3,4-dichloro-benzyl)-sulfamoyl]-phenyl}-propionic acid]",100 to 249 nM
13,"COc1ccccc1S(=O)(=O)N(Cc1ccc(C(F)(F)P(=O)(O)O)c(Cl)c1)Cc1ccccc1N1CCCCC1 [Compound 208, [(2-Chloro-4-{[(2-methoxy-benzenesulfonyl)-(2-piperidin-1-yl-benzyl)-amino]-methyl}-phenyl)-difluoro-methyl]-phosphonic acid]",250 to 499 nM
14,"O=C(O)c1ccc(CN(Cc2ccc(C(F)(F)P(=O)(O)O)c(Cl)c2)S(=O)(=O)c2ccccc2)cc1 [Compound 235, 4-({Benzenesulfonyl-[3-chloro-4-(difluoro-phosphono-methyl)-benzyl]-amino}-methyl)-benzoic acid]",250 to 499 nM
15,"COc1ccccc1S(=O)(=O)N(Cc1ccccc1)Cc1ccc(C(F)(F)P(=O)(O)O)c(Cl)c1 [Compound 170, [(4-{[Benzyl-(2-methoxy-benzenesulfonyl)-amino]-methyl}-2-chloro-phenyl)-difluoro-methyl]-phosphonic acid]",250 to 499 nM

# Next, values leading:
row,IC50,Molecule
1,> 25000 nM,"COc1ccccc1S(=O)(=O)N(Cc1ccc(C(=O)O)cc1)Cc1ccc(-c2nnn[nH]2)cc1 [Compound 116, N-(4-[hydroxycarbonyl]-benzyl)-2-methoxy-N-[4-(1H-tetrazol-5-yl)-benzyl]-benzenesulfonamide]"
2,100 to 249 nM,"COc1ccccc1S(=O)(=O)N(Cc1ccc(-c2ccc(S(C)(=O)=O)cc2)cc1)Cc1ccc(C(F)(F)P(=O)(O)O)c(Cl)c1 [Compound 147, [(2-Chloro-4-{[(4′-methanesulfonyl-biphenyl-4-ylmethyl)-(2-methoxy-benzenesulfonyl)-amino]-methyl}-phenyl)-difluoro-methyl]-phosphonic acid]"
3,> 25000 nM,"COc1ccc(OC)c(S(=O)(=O)N(Cc2ccc(C(O)CO)cc2)Cc2ccc(S(C)(=O)=O)cc2)c1 (stereo not shown) [Compound 119, N-[4-(1,2-Dihydroxy-ethyl)-benzyl]-N-(4-methanesulfonyl-benzyl)-2,5-dimethoxy-benzenesulfonamide]"
4,250 to 499 nM,"COc1cccc(S(=O)(=O)N(Cc2ccc(C(F)(F)P(=O)(O)O)cc2)Cc2ccc(C(F)(F)P(=O)(O)O)cc2)c1 [Compound 86, [(4-{[[4-(Difluoro-phosphono-methyl)-benzyl]-(3-methoxy-benzenesulfonyl)-amino]-methyl}-phenyl)-difluoro-methyl]-phosphonic acid]"
5,250 to 499 nM,"COc1ccccc1S(=O)(=O)N(Cc1ccc(OCc2ccccc2)cc1)Cc1ccc(C(F)(F)P(=O)(O)O)c(Cl)c1 [Compound 172, [(4-{[(4-Benzyloxy-benzyl)-(2-methoxy-benzenesulfonyl)-amino]-methyl}-2-chloro-phenyl)-difluoro-methyl]-phosphonic acid]"
6,< 99 nM,"COc1ccccc1S(=O)(=O)N(Cc1ccc(-c2ccc(C(=O)O)c(F)c2)cc1)Cc1ccc(C(F)(F)P(=O)(O)O)c(Cl)c1 [Compound 177, 4′-{[[3-Chloro-4-(difluoro-phosphono-methyl)-benzyl]-(2-methoxy-benzenesulfonyl)-amino]-methyl}-3-fluoro-biphenyl-4-carboxylic acid]"
7,> 25000 nM,"COc1ccccc1S(=O)(=O)N(Cc1ccc(-c2cccc(C#N)c2)cc1)Cc1ccc(C(F)(F)P(=O)(O)OCOC(=O)C(C)(C)C)c(Cl)c1 [Compound 227, 2,2-Dimethyl-propionic acid [(2-chloro-4-{[(3′-cyano-biphenyl-4-ylmethyl)-(2-methoxy-benzenesulfonyl)-amino]-methyl}-phenyl)-difluoro-methyl]-hydroxy-phosphinoyloxymethyl ester]"
8,100 to 249 nM,"COc1ccccc1S(=O)(=O)N(Cc1ccc(-c2ccc(CO)c(C(=O)O)c2)cc1)Cc1ccc(C(F)(F)P(=O)(O)O)c(Cl)c1 [Compound 200, 5-{4-[({[4-(difluorophosphonomethyl)-3-chlorophenyl]methyl}[(2-methoxyphenyl)sulfonyl]amino)methyl]phenyl}-2-(hydroxymethyl)benzoic acid,trisodium salt]"
9,> 25000 nM,"COc1ccccc1S(=O)(=O)N(Cc1ccc(-c2ccc(O)c(C(=O)O)c2)cc1)Cc1ccc(OCC(=O)O)c(Cl)c1 [Compound 222, 4′-{[(4-Carboxymethoxy-3-chloro-benzyl)-(2-methoxy-benzenesulfonyl)-amino]-methyl}-4-hydroxy-biphenyl-3-carboxylic acid]"
10,> 25000 nM,"COc1ccc(OC)c(S(=O)(=O)N(Cc2ccc(C(=O)C(=O)O)cc2)Cc2ccc(S(C)(=O)=O)cc2)c1 [Compound 113, (4-{[(2,5-Dimethoxy-benzenesulfonyl)-(4-methanesulfonyl-benzyl)-amino]-methyl}-phenyl)-oxo-acetic acid]"
